Measured values from US10597388B2, “Pyridazinone herbicides” (FMC CORPORATION, priority 2014, dated 2020).

What was measured:
Assay in all cases: Test C greenhouse herbicide test, pre- and postemergence
Format in all cases: in vivo
[1] = tested on: barnyardgrass (Echinochloa crus-galli)
Method in brief: (§1)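 Two application timings: at sowing into a soil/sand blend, and on 2–18 cm seedlings in peat-vermiculite potting mix. A non-phytotoxic, surfactant-containing solvent carried the compounds. Plants were compared with controls and rated visually on 0–100 after 13–15 d.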

[2] = tested on: blackgrass (Alopecurus myosuroides)
Method in brief: as §1

corn (Zea mays) = tested on: corn (Zea mays)
Method in brief: as §1

[3] = tested on: crabgrass, large (large crabgrass, Digitaria sanguinalis)
Method in brief: as §1

[4] = tested on: foxtail, giant (giant foxtail, Setaria faberii)
Method in brief: as §1

[5] = tested on: galium (catchweed bedstraw, Galium aparine)
Method in brief: as §1

[6] = tested on: lambsquarters (Chenopodium album)
Method in brief: as §1

[7] = tested on: morningglory (Ipomoea coccinea)
Method in brief: as §1

[8] = tested on: nutsedge, yellow (yellow nutsedge, Cyperus esculentus)
Method in brief: as §1

[9] = tested on: oilseed rape (Brassica napus)
Method in brief: as §1

[10] = tested on: ragweed (common ragweed, Ambrosia elatior)
Method in brief: as §1

[11] = tested on: ryegrass, Italian (Italian ryegrass, Lolium multiflorum)
Method in brief: as §1

soybean (Glycine max) = tested on: soybean (Glycine max)
Method in brief: as §1

[12] = tested on: velvetleaf (Abutilon theophrasti)
Method in brief: as §1

[13] = tested on: waterhemp (common waterhemp, Amaranthus rudis)
Method in brief: as §1

[14] = Postemergence, 31 g ai/ha, 0 to 100 scale (0 no effect, 100 complete control)
[15] = Postemergence, 125 g ai/ha, scale 0 to 100, 0 is no effect, 100 is complete control
[16] = Postemergence, 250 g ai/ha, scale 0 to 100, 0 no effect, 100 complete control, 13 to 15 d
[17] = Preemergence, 31 g ai/ha, scale 0 to 100, 0 is no effect, 100 is complete control
[18] = Preemergence, 62 g ai/ha, scale 0 to 100, 0 is no effect, 100 is complete control
[19] = Preemergence, 125 g ai/ha, scale 0 to 100, 0 is no effect, 100 is complete control
[20] = Preemergence, 250 g ai/ha, scale 0 to 100, 0 no effect, 100 complete control
[21] = postemergence, 62 g ai/ha, scale 0 to 100, 0 no effect, 100 complete control

Cc1nn(C)c(=O)c(-c2ccc(F)c3ccccc23)c1O [Compound 41]
Barnyardgrass plant response rating [1, 14]: 25
Plant response rating, Barnyardgrass [1, 15]: 40
Plant response rating, Barnyardgrass [1, 16]: 60
Plant response rating, Barnyardgrass [1, 17]: 10
Plant response rating, Barnyardgrass [1, 18]: 40
Plant response rating, Barnyardgrass [1, 19]: 85
Barnyardgrass plant response rating [1, 20]: 95
Barnyardgrass plant response rating [1, 21]: 35
Blackgrass plant response rating [2, 14]: 30
Plant response rating, Blackgrass [2, 15]: 50
Plant response rating, Blackgrass [2, 16]: 60
Plant response rating, Blackgrass [2, 17]: 70
Plant response rating, Blackgrass [2, 18]: 80
Plant response rating, Blackgrass [2, 19]: 85
Blackgrass plant response rating [2, 20]: 90
Blackgrass plant response rating [2, 21]: 35
Corn plant response rating (corn (Zea mays); [14]): 5
Plant response rating, Corn (corn (Zea mays); [15]): 10
Plant response rating, Corn (corn (Zea mays); [16]): 20
Plant response rating, Corn (corn (Zea mays); [17]): 0
Plant response rating, Corn (corn (Zea mays); [18]): 0
Plant response rating, Corn (corn (Zea mays); [19]): 5
Corn plant response rating (corn (Zea mays); [20]): 40
Corn plant response rating (corn (Zea mays); [21]): 5
Crabgrass, Large plant response rating [3, 14]: 5
Plant response rating, Crabgrass, Large [3, 15]: 25
Plant response rating, Crabgrass, Large [3, 16]: 35
Plant response rating, Crabgrass, Large [3, 17]: 30
Plant response rating, Crabgrass, Large [3, 18]: 35
Plant response rating, Crabgrass, Large [3, 19]: 65
Crabgrass, Large plant response rating [3, 20]: 70
Crabgrass, Large plant response rating [3, 21]: 10
Foxtail, Giant plant response rating [4, 14]: 15
Plant response rating, Foxtail, Giant [4, 15]: 30
Plant response rating, Foxtail, Giant [4, 16]: 65
Plant response rating, Foxtail, Giant [4, 17]: 45
Plant response rating, Foxtail, Giant [4, 18]: 80
Plant response rating, Foxtail, Giant [4, 19]: 85
Foxtail, Giant plant response rating [4, 20]: 85
Foxtail, Giant plant response rating [4, 21]: 15
Galium plant response rating [5, 14]: 100
Plant response rating, Galium [5, 15]: 100
Plant response rating, Galium [5, 16]: 100
Plant response rating, Galium [5, 17]: 90
Plant response rating, Galium [5, 18]: 100
Plant response rating, Galium [5, 19]: 98
Galium plant response rating [5, 20]: 98
Galium plant response rating [5, 21]: 100
Lambsquarters plant response rating [6, 14]: 90
Plant response rating, Lambsquarters [6, 15]: 95
Plant response rating, Lambsquarters [6, 16]: 98
Plant response rating, Lambsquarters [6, 17]: 75
Plant response rating, Lambsquarters [6, 18]: 90
Plant response rating, Lambsquarters [6, 19]: 100
Lambsquarters plant response rating [6, 20]: 90
Lambsquarters plant response rating [6, 21]: 95
Morningglory plant response rating [7, 14]: 95
Plant response rating, Morningglory [7, 15]: 100
Plant response rating, Morningglory [7, 16]: 98
Plant response rating, Morningglory [7, 17]: 85
Plant response rating, Morningglory [7, 18]: 95
Plant response rating, Morningglory [7, 19]: 95
Morningglory plant response rating [7, 20]: 98
Morningglory plant response rating [7, 21]: 95
Nutsedge, Yellow plant response rating [8, 14]: 65
Plant response rating, Nutsedge, Yellow [8, 15]: 65
Plant response rating, Nutsedge, Yellow [8, 16]: 80
Plant response rating, Nutsedge, Yellow [8, 17]: 60
Plant response rating, Nutsedge, Yellow [8, 18]: 75
Plant response rating, Nutsedge, Yellow [8, 19]: 75
Nutsedge, Yellow plant response rating [8, 20]: 80
Nutsedge, Yellow plant response rating [8, 21]: 65
Oilseed Rape plant response rating [9, 14]: 0
Plant response rating, Oilseed Rape [9, 15]: 5
Plant response rating, Oilseed Rape [9, 16]: 0
Plant response rating, Oilseed Rape [9, 17]: 5
Plant response rating, Oilseed Rape [9, 18]: 50
Plant response rating, Oilseed Rape [9, 19]: 40
Oilseed Rape plant response rating [9, 20]: 100
Oilseed Rape plant response rating [9, 21]: 0
Ragweed plant response rating [10, 14]: 70
Plant response rating, Ragweed [10, 15]: 95
Plant response rating, Ragweed [10, 16]: 100
Plant response rating, Ragweed [10, 17]: 85
Plant response rating, Ragweed [10, 18]: 85
Plant response rating, Ragweed [10, 19]: 95
Ragweed plant response rating [10, 20]: 100
Ragweed plant response rating [10, 21]: 85
Ryegrass, Italian plant response rating [11, 14]: 80
Plant response rating, Ryegrass, Italian [11, 15]: 90
Plant response rating, Ryegrass, Italian [11, 16]: 90
Plant response rating, Ryegrass, Italian [11, 17]: 95
Plant response rating, Ryegrass, Italian [11, 18]: 95
Plant response rating, Ryegrass, Italian [11, 19]: 95
Ryegrass, Italian plant response rating [11, 20]: 95
Ryegrass, Italian plant response rating [11, 21]: 90
Soybean plant response rating (soybean (Glycine max); [14]): 15
Plant response rating, Soybean (soybean (Glycine max); [15]): 20
Plant response rating, Soybean (soybean (Glycine max); [16]): 15
Plant response rating, Soybean (soybean (Glycine max); [17]): 0
Plant response rating, Soybean (soybean (Glycine max); [18]): 20
Plant response rating, Soybean (soybean (Glycine max); [19]): 50
Soybean plant response rating (soybean (Glycine max); [20]): 55
Soybean plant response rating (soybean (Glycine max); [21]): 15
Velvetleaf plant response rating [12, 14]: 30
Plant response rating, Velvetleaf [12, 15]: 85
Plant response rating, Velvetleaf [12, 16]: 90
Plant response rating, Velvetleaf [12, 17]: 85
Plant response rating, Velvetleaf [12, 18]: 90
Plant response rating, Velvetleaf [12, 19]: 95
Velvetleaf plant response rating [12, 20]: 98
Velvetleaf plant response rating [12, 21]: 65
Waterhemp plant response rating [13, 14]: 75
Plant response rating, Waterhemp [13, 15]: 90
Plant response rating, Waterhemp [13, 16]: 85
Plant response rating, Waterhemp [13, 17]: 85
Plant response rating, Waterhemp [13, 18]: 95
Plant response rating, Waterhemp [13, 19]: 100
Waterhemp plant response rating [13, 20]: 100
Waterhemp plant response rating [13, 21]: 75
